Key:
[1] = tested on: SK-MES-1 human non-small cell lung carcinoma; test: MTT cell growth inhibition, SK-MES-1; type: cell-based; settings: Homo sapiens; SK-MES-1, MTT, 5-10 days
Description: (§1) The following experiment confirms that the elsamitrucin salts made in accordance with the teachings of the present disclosure retain their in vitro anti-neoplastic activity when compared to elsamitrucin base. Elsamitrucin and elsamitrucin tosylate were tested in vitro using: B16F10 (murine […]), HCT 116 (human colon), HT29 (human colon) and SK-MES-1 (human non-small cell lung carcinoma). Cell growth inhibition was evaluated in 96-well micro-culture plates with a semi-automated MTT (3-(4,5-dimethylthiazol-2-yl)-2,5-diphenyltetrazolium bromide) assay. […]
(§2) Cell culture plates seeded with test cells and various concentrations of elsamitrucin solutions were placed in a humidified incubator at 37° C., with CO2 and 95% air for 5-10 days. […] Absorbance was monitored at a wavelength of 595 nm, and at a reference wavelength of 650 nm, using a TECAN® GENios mocroplate reader. In all experiments, absorbance data was acquired for each agent at two overlapping concentration ranges. […]
(§3) The results of each test were stored and imported into PRISM® 3.03 for graphical analysis and determination of IC50 values. All results were graphed as a percentage of controlled absorbance versus the drug concentration. […]

[2] = tested on: B16F10 murine melanoma cells; test: MTT cell growth inhibition, B16F10; type: cell-based; settings: Mus musculus, B16-F10, 5-10 days
Description: as §1, §2, §3

[3] = tested on: HCT 116 human colon carcinoma; test: MTT cell growth inhibition, HCT 116; type: cell-based; settings: Homo sapiens; HCT 116, MTT, 5-10 days
Description: as §1, §2, §3

[4] = tested on: HT29 human colon carcinoma; test: MTT cell growth inhibition, HT29; type: cell-based; settings: Homo sapiens, HT-29, 5-10 days
Description: as §1, §2, §3

MCF7 = settings: ER+ MCF7 cell line; cited from earlier work
MDA-MB-231 = settings: ER− MDA-MB-231 cell line; cited from earlier work
MCF7DX = MCF7DX subline; cited from earlier work
ER+ tumors = settings: clinical specimens; cited from earlier work
ER− tumors = settings: clinical specimens; cited from earlier work
[5] = patients with refractory/relapsed non-Hodgkin's lymphoma; cited from earlier work
[6] = stability study of Elsamitrucin F2 RTU, impurities profile by HPLC;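 also: formulation kept in nitrogen-flushed sealed amber vials, sampled at time points, diluted to roughly 0.1 mg/mL and analysed by gradient HPLC on a C18 column, water/acetonitrile with trifluoroacetic acid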
Description: Design of the Stability Study: 250 mL of Elsamitrucin Tosylate stock solution (10 mg/mL free base, 4.77% Mannitol, pH 4.0) was prepared. 80×5 mL amber serum vials were filled with 2.5 mL of the Elsamitrucin Tosylate stock solution, flushed with nitrogen and sealed with stoppers. These sealed vials, in both upright and inverted positions, were stored in the following temperature cabinets at 4, 25, 40 and 60° C., respectively. […] Samples were removed for pH measurement and high performance liquid chromatography (HPLC) analysis at the various time points. At 60° C., measurements were made at 0, 2, 7, 10, 14 days. At 40° C., measurements were made at 0, 7, 14, 28, 38, 64, 77, 84 days. At 25° C., measurements were made at 0, 7, 14, 28, 64, 84 days. At 4° C., measures were made at 0, 7, 14, 28, 64, 84 days.
For the present stability study HPLC weight/weight assay of elsamitrucin was done in addition to the determination of related impurities. The reagents for the HPLC assay are as follows—HPLC grade acetonitrile and trifluoroacetic acid (Lot #44093418) were obtained from EMD Science. Water was purified with Millipore Milli-Q system. The apparatus was the chromatographic system which consisted of a Waters Alliance 2695 separation module equipped with a column heater, an autosampler and a Waters 2996 photodiode array detector. Data acquisition was controlled by Waters Empower Pro 2 software. As the column a Cadenza Cd-C18, 3 μm, 4.6×150 mm (Silverstone Sciences) was used. Detection was made at 267 nm. Mobile phase A contained water with 0.1% trifluoroacetic acid. 2 mL of trifluoroacetic acid was pipetted to 2000 mL of water. Mobile phase B contained acetonitrile with 0.08% trifluoroacetic acid. 1 mL of trifluoroacetic acid was pipetted to 1250 mL of acetonitrile. 1 L of water was mixed thoroughly with 1 L of acetonitrile.
HPLC analysis was run with a gradient at flow rate equal to 1.0 mL/min. The oven temperature was set at 40° C. The autosampler temperature was at 25° C. The injection volume was 10 μL. Sample Diluent—Acetonitrile/water (50/50, v/v): 1 L of water was mixed thoroughly with 1 L of acetonitrile. Sample Blank—Acetonitrile/water (50/50, v/v): Sample Diluent was used as Sample Blank. Standard Solution—˜0.1 mg/mL of Elsamitrucin: 26.32 mg of Elsamitrucin Tosylate was accurately weighed and dissolved in a 200 mL of Sample Diluent in a 200 mL volumetric flask. Sample Solution Preparation (one vial per time point): 2 mL of Elsamitrucin RTU solution was pipetted to a 20 mL volumetric flask and diluted with 18 mL of Sample Diluent. 2 mL of the diluted solution was further diluted with 18 mL of Sample Diluent in a 20 mL volumetric flask to give the final analytical sample (with concentration at about 0.1 mg/mL). The retention time for Elsamitrucin was about 11.7 minutes.

CO[C@H]1[C@@H](O)[C@@H](C)OC(O[C@H]2[C@H](Oc3cccc4c(O)c5c(=O)oc6ccc(C)c7c(=O)oc(c34)c5c67)O[C@H](C)[C@H](O)[C@]2(C)O)[C@@H]1N (stereo partly drawn) [Elsamitrucin, benzo(h)(1)benzopyrano(5,4,3-cde)(1)ebnzopyran-5,12-dione,10((2-O-(2-amino-2,6-dideoxy-3-O-methyl-alpha-D-galactopyranosyl)-6-deoxy-3-C-methyl-beta-D-galactopyranosyl)oxy)-6-hydroxy-1-methyl]
IC50 [1]: 42 nM | IC50 [2]: 24 nM | IC50 [3]: 74 nM | IC50 [4]: 95 nM | IC50 antiproliferative effect (MCF7): 0.25 micrograms/ml | IC50 antiproliferative effect (MDA-MB-231): 0.21 micrograms/ml | cross-resistance to DX (MCF7DX): cross-resistant | minimal inhibiting concentrations (ER+ tumors): 0.1 micrograms/ml | minimal inhibiting concentrations (ER− tumors): 3.5 micrograms/ml | elsamtrucin-associated toxicity [5]: relatively mild | Area Percent of HPLC peak ([6]; 10 mg/mL ELSA RTU Formulation 2, inverted, 5° C., Day 7): 97.89 Area Percent | Area Percent of HPLC peak ([6]; 10 mg/mL ELSA RTU Formulation 2, inverted, 5° C., Day 14): 97.70 Area Percent | Area Percent of HPLC peak ([6]; 10 mg/mL ELSA RTU Formulation 2, inverted, 5° C., Day 28): 98.41 Area Percent | Area Percent of HPLC peak ([6]; 10 mg/mL ELSA RTU Formulation 2, inverted, 5° C., Day 64): 97.54 Area Percent | Area Percent of HPLC peak ([6]; 10 mg/mL ELSA RTU Formulation 2, inverted, 5° C., Day 84): 98.15 Area Percent | Area Percent of HPLC peak ([6]; 10 mg/mL ELSA RTU Formulation 2, inverted, 5° C., Initial): 97.63 Area Percent | Area Percent of HPLC peak ([6]; 10 mg/mL ELSA RTU Formulation 2, inverted, 25° C., Day 7): 97.71 Area Percent | Area Percent of HPLC peak ([6]; 10 mg/mL ELSA RTU Formulation 2, inverted, 25° C., Day 14): 97.73 Area Percent | Area Percent of HPLC peak ([6]; 10 mg/mL ELSA RTU Formulation 2, inverted, 25° C., Day 28): 98.37 Area Percent | Area Percent of HPLC peak ([6]; 10 mg/mL ELSA RTU Formulation 2, inverted, 25° C., Day 64): 97.42 Area Percent | Area Percent of HPLC peak ([6]; 10 mg/mL ELSA RTU Formulation 2, inverted, 25° C., Day 84): 97.28 Area Percent | Area Percent of HPLC peak ([6]; 10 mg/mL ELSA RTU Formulation 2, inverted, 25° C., Initial): 97.63 Area Percent | Area Percent of HPLC peak ([6]; 10 mg/mL ELSA RTU Formulation 2, inverted, 40° C., Day 7): 97.75 Area Percent | Area Percent of HPLC peak ([6]; 10 mg/mL ELSA RTU Formulation 2, inverted, 40° C., Day 14): 97.64 Area Percent | Area Percent of HPLC peak ([6]; 10 mg/mL ELSA RTU Formulation 2, inverted, 40° C., Day 28): 97.70 Area Percent | Area Percent of HPLC peak ([6]; 10 mg/mL ELSA RTU Formulation 2, inverted, 40° C., Day 38): 98.04 Area Percent | Area Percent of HPLC peak ([6]; 10 mg/mL ELSA RTU Formulation 2, inverted, 40° C., Day 64): 97.04 Area Percent | Area Percent of HPLC peak ([6]; 10 mg/mL ELSA RTU Formulation 2, inverted, 40° C., Day 77): 96.84 Area Percent | Area Percent of HPLC peak ([6]; 10 mg/mL ELSA RTU Formulation 2, inverted, 40° C., Day 84): 96.64 Area Percent | Area Percent of HPLC peak ([6]; 10 mg/mL ELSA RTU Formulation 2, inverted, 40° C., Initial): 97.63 Area Percent | Area Percent of HPLC peak ([6]; 10 mg/mL ELSA RTU Formulation 2, inverted, 60° C., Day 2): 97.73 Area Percent | Area Percent of HPLC peak ([6]; 10 mg/mL ELSA RTU Formulation 2, inverted, 60° C., Day 7): 96.86 Area Percent | Area Percent of HPLC peak ([6]; 10 mg/mL ELSA RTU Formulation 2, inverted, 60° C., Day 10): 96.82 Area Percent | Area Percent of HPLC peak ([6]; 10 mg/mL ELSA RTU Formulation 2, inverted, 60° C., Day 14): 96.03 Area Percent | Area Percent of HPLC peak ([6]; 10 mg/mL ELSA RTU Formulation 2, inverted, 60° C., Initial): 97.63 Area Percent | Area Percent of HPLC peak ([6]; 10 mg/mL ELSA RTU Formulation 2, upright, 5° C., Day 7): 97.86 Area Percent | Area Percent of HPLC peak ([6]; 10 mg/mL ELSA RTU Formulation 2, upright, 5° C., Day 14): 97.63 Area Percent | Area Percent of HPLC peak ([6]; 10 mg/mL ELSA RTU Formulation 2, upright, 5° C., Day 28): 97.63 Area Percent | Area Percent of HPLC peak ([6]; 10 mg/mL ELSA RTU Formulation 2, upright, 5° C., Day 64): 97.39 Area Percent | Area Percent of HPLC peak ([6]; 10 mg/mL ELSA RTU Formulation 2, upright, 5° C., Day 84): 97.33 Area Percent | Area Percent of HPLC peak ([6]; 10 mg/mL ELSA RTU Formulation 2, upright, 5° C., Initial): 97.63 Area Percent | Area Percent of HPLC peak ([6]; 10 mg/mL ELSA RTU Formulation 2, upright, 40° C., Day 7): 97.77 Area Percent | Area Percent of HPLC peak ([6]; 10 mg/mL ELSA RTU Formulation 2, upright, 40° C., Day 14): 97.71 Area Percent | Area Percent of HPLC peak ([6]; 10 mg/mL ELSA RTU Formulation 2, upright, 40° C., Day 28): 97.62 Area Percent | Area Percent of HPLC peak ([6]; 10 mg/mL ELSA RTU Formulation 2, upright, 40° C., Day 38): 97.76 Area Percent | Area Percent of HPLC peak ([6]; 10 mg/mL ELSA RTU Formulation 2, upright, 40° C., Day 64): 96.86 Area Percent | Area Percent of HPLC peak ([6]; 10 mg/mL ELSA RTU Formulation 2, upright, 40° C., Day 77): 96.80 Area Percent | Area Percent of HPLC peak ([6]; 10 mg/mL ELSA RTU Formulation 2, upright, 40° C., Day 84): 97.31 Area Percent | Area Percent of HPLC peak ([6]; 10 mg/mL ELSA RTU Formulation 2, upright, 40° C., Initial): 97.63 Area Percent | Area Percent of HPLC peak ([6]; 10 mg/mL ELSA RTU Formulation 12, upright, 25° C., Day 7): 97.86 Area Percent | Area Percent of HPLC peak ([6]; 10 mg/mL ELSA RTU Formulation 12, upright, 25° C., Day 14): 97.67 Area Percent | Area Percent of HPLC peak ([6]; 10 mg/mL ELSA RTU Formulation 12, upright, 25° C., Day 28): 98.32 Area Percent | Area Percent of HPLC peak ([6]; 10 mg/mL ELSA RTU Formulation 12, upright, 25° C., Day 64): 97.68 Area Percent | Area Percent of HPLC peak ([6]; 10 mg/mL ELSA RTU Formulation 12, upright, 25° C., Day 84): 98.08 Area Percent | Area Percent of HPLC peak ([6]; 10 mg/mL ELSA RTU Formulation 12, upright, 25° C., Initial): 97.63 Area Percent | Area Percent of HPLC peak ([6]; 10 mg/mL ELSA RTU Formulation 12, upright, 60° C., Day 2): 97.83 Area Percent | Area Percent of HPLC peak ([6]; 10 mg/mL ELSA RTU Formulation 12, upright, 60° C., Day 7): 96.93 Area Percent | Area Percent of HPLC peak ([6]; 10 mg/mL ELSA RTU Formulation 12, upright, 60° C., Day 10): 95.99 Area Percent | Area Percent of HPLC peak ([6]; 10 mg/mL ELSA RTU Formulation 12, upright, 60° C., Day 14): 95.79 Area Percent | Area Percent of HPLC peak ([6]; 10 mg/mL ELSA RTU Formulation 12, upright, 60° C., Initial): 97.63 Area Percent

From patent US20110251143A1, “STABLE ELSAMITRUCIN SALT FORMULATIONS” (Spectrum Pharmaceuticals, Inc., priority 2007, published 2011)
